Measured values published in BindingDB's records for patent US20240376097 (Beigene, 2024).
Values joined by “and” are separate entries in the source; they are usually repeats but may differ in a detail not shown here. Equal entries are not always repeated.

Molecular target: Apoptosis regulator Bcl-2 (Homo sapiens, UniProt P10415)
Assay: Bcl-2 TR-FRET Assay
Experimental: Compounds disclosed herein were tested for blocking of Bcl-2 protein with its ligand in an assay based on Time-Resolved Fluorescence Resonance Energy Transfer (TR-FRET) methodology. Recombinant human 0.05 nM Bcl-2 protein was pre-incubated with a serial dilution of compounds disclosed herein (top final concentration is 1 uM or 0.1 uM or 0.02 uM or 0.01 uM, 10 points) at room temperature for 0.5 hour in an assay buffer containing 20 mM potassium phosphate buffer, pH 7.5, 50 mM NaCl. 1 mM EDTA, 0.05% Tween-20, 0.01% BSA. Then the FITC labeled Bak peptide Ac-GQVGRQLAIIGDK(FITC)INR-amide (0.5 nM) and MAb Anti 6His Tb cryptate Gold were added to plate and further incubated at room temperature for 1 hour. The TR-FRET signals (337 nm-520 nm-490 nm) were read on BMG PHERAstar FSX instrument. The inhibition percentage of Bcl-2 interaction with its ligand in presence of increasing concentrations of compounds was calculated based on the TR-FRET signals.

Apoptosis regulator Bcl-2, sequence (P10415 whole entry): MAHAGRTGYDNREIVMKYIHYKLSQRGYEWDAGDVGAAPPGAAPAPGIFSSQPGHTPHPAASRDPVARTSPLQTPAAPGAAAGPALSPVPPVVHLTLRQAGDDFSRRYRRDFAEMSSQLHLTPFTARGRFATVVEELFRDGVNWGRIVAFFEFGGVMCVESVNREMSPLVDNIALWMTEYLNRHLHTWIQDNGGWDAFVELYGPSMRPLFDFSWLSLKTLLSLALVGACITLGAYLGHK

Structure (SMILES)	IC50
CC(C)c1ccccc1[C@@H]1CN(Cc2ccc(OC3CC3)c(OC3CC3)c2)CCN1C1CC2(C1)CN(c1ccc(C(=O)NS(=O)(=O)c3ccc(NC[C@H]4CC[C@](C)(O)CC4)c([N+](=O)[O-])c3)c(Oc3cnc4[nH]cc(F)c4c3)c1)C2 [US20240376097, Example 363]	340 pM and 400 pM
COCCN1CCN(C2CC3(CCN(c4ccc(C(=O)NS(=O)(=O)c5ccc(NC[C@H]6CC[C@](C)(O)CC6)c([N+](=O)[O-])c5)c(Oc5cnc6[nH]ccc6c5)c4)CC3)C2)C(c2ccccc2C(C)C)C1 (some centres undefined) [US20240376097, Example 13]	11 pM
COc1cc(CN2CCN(C3CC4(CCN(c5ccc(C(=O)NS(=O)(=O)c6ccc(NC[C@H]7CC[C@](C)(O)CC7)c([N+](=O)[O-])c6)c(Oc6cnc7[nH]ccc7c6)c5)CC4)C3)[C@H](c3ccccc3C(C)C)C2)ccc1Cl [US20240376097, Example 276]	480 pM
COc1cc(CN2CCN(C3CC4(CCN(c5ccc(C(=O)NS(=O)(=O)c6ccc(NC[C@H]7CC[C@](C)(O)CC7)c([N+](=O)[O-])c6)c(Oc6cnc7[nH]ccc7c6)c5)CC4)C3)C(c3ccccc3C(C)C)C2)cc(C(F)(F)F)c1OC (some centres undefined) [US20240376097, Example 179]	1500 pM
COc1cc(CN2CCN(C3CC4(CCN(c5ccc(C(=O)NS(=O)(=O)c6ccc(NC[C@H]7CC[C@](C)(O)CC7)c([N+](=O)[O-])c6)c(Oc6cnc7[nH]ccc7c6)c5)CC4)C3)C(c3ccccc3C(C)C)C2)cc(OC)c1 (some centres undefined) [US20240376097, Example 49]	200 pM
CC(C)c1ccccc1C1CN(CC(C)(C)C)CCN1C1CC2(CCN(c3ccc(C(=O)NS(=O)(=O)c4ccc(NC[C@H]5CC[C@](C)(O)CC5)c([N+](=O)[O-])c4)c(Oc4cnc5[nH]ccc5c4)c3)CC2)C1 (some centres undefined) [US20240376097, Example 12]	730 pM
COc1ccc(CN2CCN(C3CC4(CCN(c5ccc(C(=O)NS(=O)(=O)c6ccc(NC[C@H]7CC[C@](C)(O)CC7)c([N+](=O)[O-])c6)c(Oc6cnc7[nH]ccc7c6)c5)CC4)C3)C(c3ccccc3C(C)C)C2)cc1 (some centres undefined) [US20240376097, Example 19]	86 pM
COc1cc(CN2CCN(C3CC4(CCN(c5ccc(C(=O)NS(=O)(=O)c6ccc(NC[C@H]7CC[C@](C)(O)CC7)c([N+](=O)[O-])c6)c(Oc6cnc7[nH]cc(F)c7c6)c5)CC4)C3)[C@H](c3ccccc3C(C)C)C2)cc(C)c1OC [US20240376097, Example 210]	330 pM
COc1cc(CN2CCN(C3CC4(CCN(c5ccc(C(=O)NS(=O)(=O)c6ccc(NC[C@H]7CC[C@](C)(O)CC7)c([N+](=O)[O-])c6)c(Oc6cnc7[nH]cc(F)c7c6)c5)CC4)C3)[C@H](c3ccccc3C(C)C)C2)ccc1Cl [US20240376097, Example 278]	600 pM
